Results reported in ChEMBL document CHEMBL1132681, “Inhibition of human cytomegalovirus protease by enedione derivatives of thieno[2,3-d]oxazinones through a novel dual acylation/alkylation mechanism” (Bioorg Med Chem Lett, 1999).

How the values were obtained:
[1] = target: T1, Capsid scaffolding protein (Human cytomegalovirus (strain AD169) (HHV-5) (Human herpesvirus 5), UniProt P16753); assay: Inhibitory activity against cytomegalovirus protease (CMV); assay type: functional
T1 sequence (P16753 whole entry): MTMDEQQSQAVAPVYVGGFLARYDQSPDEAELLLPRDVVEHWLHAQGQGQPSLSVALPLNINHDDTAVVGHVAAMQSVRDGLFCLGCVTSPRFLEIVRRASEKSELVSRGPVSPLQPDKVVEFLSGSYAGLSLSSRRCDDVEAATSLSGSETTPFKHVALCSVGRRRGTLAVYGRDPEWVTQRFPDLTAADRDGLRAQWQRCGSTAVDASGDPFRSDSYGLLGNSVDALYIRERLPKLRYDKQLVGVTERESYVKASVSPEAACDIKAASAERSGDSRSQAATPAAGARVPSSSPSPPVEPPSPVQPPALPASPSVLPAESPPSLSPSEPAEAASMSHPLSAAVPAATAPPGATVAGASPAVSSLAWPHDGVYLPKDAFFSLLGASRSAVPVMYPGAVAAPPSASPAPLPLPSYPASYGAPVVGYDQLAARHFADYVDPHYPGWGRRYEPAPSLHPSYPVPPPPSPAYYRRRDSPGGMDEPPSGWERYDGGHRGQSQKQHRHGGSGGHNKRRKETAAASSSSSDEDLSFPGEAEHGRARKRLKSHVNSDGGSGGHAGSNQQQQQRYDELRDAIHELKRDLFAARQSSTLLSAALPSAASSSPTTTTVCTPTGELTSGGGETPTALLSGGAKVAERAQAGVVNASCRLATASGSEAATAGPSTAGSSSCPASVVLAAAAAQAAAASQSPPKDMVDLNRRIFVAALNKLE

[2] = target: T2, Capsid scaffolding protein (Human herpesvirus 2 (strain HG52) (HHV-2) (Human herpes simplex virus2), UniProt P89449); assay: Inhibitory activity against herpes simplex virus protease (HSV-2); assay type: functional, Human alphaherpesvirus 2
T2 sequence (P89449 whole entry): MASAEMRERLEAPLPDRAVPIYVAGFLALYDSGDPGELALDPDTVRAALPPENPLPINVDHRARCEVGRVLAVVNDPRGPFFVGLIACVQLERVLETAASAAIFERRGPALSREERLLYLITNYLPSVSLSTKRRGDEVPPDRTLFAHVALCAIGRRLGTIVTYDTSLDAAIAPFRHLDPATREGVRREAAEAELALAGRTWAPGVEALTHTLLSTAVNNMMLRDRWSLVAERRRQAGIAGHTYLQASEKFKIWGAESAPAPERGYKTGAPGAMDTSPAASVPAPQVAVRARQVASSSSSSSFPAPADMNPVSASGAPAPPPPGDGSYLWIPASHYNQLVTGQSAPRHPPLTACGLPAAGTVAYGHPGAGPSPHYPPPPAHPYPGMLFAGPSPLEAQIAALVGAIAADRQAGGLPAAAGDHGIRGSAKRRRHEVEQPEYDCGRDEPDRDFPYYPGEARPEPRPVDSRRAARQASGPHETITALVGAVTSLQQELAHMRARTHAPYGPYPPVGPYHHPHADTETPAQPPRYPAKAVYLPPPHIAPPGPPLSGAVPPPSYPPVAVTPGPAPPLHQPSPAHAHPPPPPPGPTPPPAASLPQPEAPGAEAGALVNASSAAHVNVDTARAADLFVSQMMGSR

[3] = system: MRC5; assay: Compound was tested for cytotoxicity in MRC-5 cells using XTT assay; assay type: functional; details: Homo sapiens, read-out: TC50 (the source's name)

Row | Compound | IC50 [1] | IC50 [2] | CC50 [3]
1 | CC(=O)/C=C/C(=O)N[C@@H](C)c1nc2scc(C)c2c(=O)o1 | 370 nM | 790 nM | 11000 nM
2 | Cc1csc2nc([C@H](C)NC(=O)CCC(=O)c3cccs3)oc(=O)c12 | 19000 nM | 4700 nM | 
3 | Cc1csc2nc([C@H](C)NC(=O)/C=C/C(=O)c3ccc(Cl)cc3)oc(=O)c12 | 60 nM | 15000 nM | 
4 | COc1cccc(C(=O)/C=C/C(=O)N[C@@H](C)c2nc3scc(C)c3c(=O)o2)c1 | 29 nM | 680 nM | 
5 | CCOc1ccc(C(=O)/C=C/C(=O)N[C@@H](C)c2nc3scc(C)c3c(=O)o2)cc1 | 260 nM | 16000 nM | 
6 | Cc1csc2nc([C@H](C)NC(=O)/C=C/C(=O)c3cccc(C#N)c3)oc(=O)c12 | 41 nM | 2000 nM | 
7 | Cc1csc2nc([C@H](C)NC(=O)/C=C/C(=O)c3ccccc3)oc(=O)c12 | 30 nM | 2700 nM | 14000 nM
8 | Cc1csc2nc([C@H](C)NC(=O)/C=C/C(=O)c3cccc([N+](=O)[O-])c3)oc(=O)c12 | 31 nM | 3000 nM | 
9 | Cc1csc2nc([C@H](C)NC(=O)/C=C/C(=O)c3cccs3)oc(=O)c12 | 29 nM | 4600 nM | 2000 nM
10 | Cc1csc2nc([C@H](C)NC(=O)/C=C/C(=O)Nc3ccccc3)oc(=O)c12 | 2300 nM | 2600 nM | 
11 | Cc1csc2nc([C@H](C)NC(=O)CCC(=O)c3ccccc3)oc(=O)c12 | 21000 nM | 12000 nM | 
12 | Cc1csc2nc([C@H](C)NC(=O)/C=C/C(=O)c3ccccc3[N+](=O)[O-])oc(=O)c12 | 14 nM | 2200 nM | 
